Test results: ChEMBL document CHEMBL1201862, “PubChem BioAssay data set” (2004)
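Five concentrations, 48 hours, 96-well plates. GI50 marks 50% less growth.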 Active and inactive are the calls of the source. No stated cut-off is given here; in the data, active = GI50 up to about 1.1 µM and inactive = higher.

Key:
Assay in all cases: NCI tumour cell line growth inhibition, 48 h
NCI-H522 = system: NCI-H522
NCI-H23 = system: NCI-H23
SK-MEL-5 = system: SK-MEL-5
M14 = system: M14
MDA-MB-435 = system: MDA-MB-435
A549 = system: A549
SF-539 = system: SF-539
SK-MEL-2 = system: SK-MEL-2
MDA-MB-231 = system: MDA-MB-231
SR = system: SR
MCF7 = system: MCF7
SW-620 = system: SW-620
Hs-578T = system: Hs-578T
BT-549 = system: BT-549
MDA-N = system: MDA-N
SN12C = system: SN12C
HCC 2998 = system: HCC 2998

Measured: GI50

CCc1nc(N)c2nc(-c3ccc(C#N)cc3)oc2n1
inactive: NCI-H522 > 100 µM | NCI-H23 > 100 µM | SK-MEL-5 > 100 µM | M14 > 100 µM | MDA-MB-435 > 100 µM | A549 > 100 µM | SF-539 > 100 µM | SK-MEL-2 > 100 µM | MDA-MB-231 > 100 µM | SR > 100 µM | MCF7 > 100 µM | SW-620 > 100 µM | Hs-578T > 100 µM | BT-549 > 100 µM | MDA-N > 100 µM | SN12C > 100 µM | HCC 2998 > 100 µM

CCCCCCCCC/C=C1\CC(CO)(COC(=O)c2ccccc2)OC1=O (stereo not drawn)
inactive: NCI-H522 17.9 µM | NCI-H23 19.4 µM | SK-MEL-5 12.5 µM | M14 17.8 µM | MDA-MB-435 16 µM | A549 20 µM | SK-MEL-2 43.5 µM | MDA-MB-231 19.3 µM | SR 42.4 µM | MCF7 23.8 µM | SW-620 19.1 µM | Hs-578T 17.3 µM | BT-549 21.8 µM | MDA-N 16.6 µM | SN12C 19.2 µM | HCC 2998 22.8 µM

c1ccc2c(c1)[nH]c1c2cc[n+]2cc3c(cc12)CCCC3
inactive: NCI-H522 1.79 µM | NCI-H23 2.24 µM | SK-MEL-5 1.54 µM | M14 2.3 µM | MDA-MB-435 1.91 µM | A549 6.93 µM | SF-539 1.64 µM | SK-MEL-2 1.63 µM | MDA-MB-231 2 µM | SR 1.75 µM | MCF7 2.13 µM | SW-620 2.1 µM | Hs-578T 3.87 µM | BT-549 2.76 µM | MDA-N 1.57 µM | SN12C 2.61 µM | HCC 2998 1.87 µM

O=C1O[C@H](c2ccc3c(c2)OCO3)[C@H]2CO[C@@H](c3ccc4c(c3)OCO4)[C@@H]12
inactive: NCI-H522 94.8 µM | NCI-H23 78.7 µM | SK-MEL-5 42 µM | M14 > 100 µM | MDA-MB-435 > 100 µM | A549 > 100 µM | SF-539 > 100 µM | SK-MEL-2 > 100 µM | MDA-MB-231 > 100 µM | SR 42.7 µM | MCF7 > 100 µM | SW-620 > 100 µM | Hs-578T > 100 µM | BT-549 > 100 µM | MDA-N > 100 µM | SN12C > 100 µM | HCC 2998 > 100 µM

O=C1OC(c2ccco2)=N/C1=C\c1ccc(Cl)c(Cl)c1
inactive: NCI-H522 51.4 µM | NCI-H23 > 100 µM | SK-MEL-5 > 100 µM | M14 > 100 µM | MDA-MB-435 > 100 µM | A549 62.1 µM | SF-539 50 µM | SK-MEL-2 > 100 µM | MDA-MB-231 > 100 µM | SR > 100 µM | MCF7 3.67 µM | SW-620 > 100 µM | Hs-578T 36.1 µM | BT-549 > 100 µM | MDA-N > 100 µM | SN12C > 100 µM | HCC 2998 70.8 µM

CC1(C)OC2OC(C(=O)c3ccccc3)C3OC(C)(C)OC3C2O1 (stereo not drawn)
inactive: NCI-H522 > 100 µM | NCI-H23 > 100 µM | SK-MEL-5 > 100 µM | M14 > 100 µM | MDA-MB-435 > 100 µM | SF-539 > 100 µM | SK-MEL-2 > 100 µM | MDA-MB-231 > 100 µM | SR > 100 µM | MCF7 > 100 µM | SW-620 > 100 µM | Hs-578T > 100 µM | BT-549 > 100 µM | MDA-N > 100 µM | SN12C > 100 µM | HCC 2998 > 100 µM

NC(CO)C(=O)NCC(=O)O (stereo not drawn)
inactive: NCI-H522 > 100 µM | NCI-H23 > 100 µM | SK-MEL-5 > 100 µM | M14 > 100 µM | MDA-MB-435 > 100 µM | A549 > 100 µM | SF-539 > 100 µM | SK-MEL-2 > 100 µM | MDA-MB-231 > 100 µM | SR > 100 µM | MCF7 > 100 µM | SW-620 > 100 µM | Hs-578T > 100 µM | BT-549 > 100 µM | MDA-N > 100 µM | SN12C > 100 µM | HCC 2998 > 100 µM

Cc1ccc(-c2n[nH]c(=O)n2N2C(=O)c3ccccc3C2=O)cc1
inactive: NCI-H522 > 100 µM | NCI-H23 > 100 µM | SK-MEL-5 > 100 µM | M14 > 100 µM | MDA-MB-435 > 100 µM | A549 > 100 µM | SF-539 > 100 µM | SK-MEL-2 > 100 µM | MDA-MB-231 > 100 µM | SR > 100 µM | MCF7 > 100 µM | SW-620 > 100 µM | Hs-578T > 100 µM | BT-549 > 100 µM | MDA-N > 100 µM | SN12C > 100 µM | HCC 2998 > 100 µM

O=C(Nc1ccccc1)N1CC(CN2CCN(c3ccccc3)CC2)OC1=O (stereo not drawn)
inactive: NCI-H522 80.9 µM | NCI-H23 > 100 µM | SK-MEL-5 > 100 µM | M14 > 100 µM | MDA-MB-435 > 100 µM | A549 > 100 µM | SK-MEL-2 > 100 µM | MDA-MB-231 > 100 µM | SR > 100 µM | MCF7 > 100 µM | SW-620 > 100 µM | Hs-578T 67 µM | BT-549 > 100 µM | MDA-N > 100 µM | SN12C > 100 µM | HCC 2998 > 100 µM

CCOP(=O)(OCC)C(C)(CC)N/C(N)=N/C#N (stereo not drawn)
inactive: NCI-H23 > 100 µM | SK-MEL-5 > 100 µM | M14 > 100 µM | MDA-MB-435 > 100 µM | A549 > 100 µM | SF-539 > 100 µM | SK-MEL-2 > 100 µM | MDA-MB-231 > 100 µM | SR > 100 µM | MCF7 > 100 µM | SW-620 > 100 µM | Hs-578T > 100 µM | BT-549 > 100 µM | MDA-N > 100 µM | SN12C > 100 µM | HCC 2998 > 100 µM

CN(C)/C=C/c1nnnn1-c1ccc(I)cc1
inactive: NCI-H522 25.5 µM | NCI-H23 24.7 µM | SK-MEL-5 16.6 µM | M14 14.3 µM | MDA-MB-435 20.5 µM | A549 > 100 µM | SF-539 19.5 µM | MDA-MB-231 16.6 µM | SR 16.4 µM | MCF7 12 µM | SW-620 15.3 µM | Hs-578T 13.6 µM | BT-549 22.8 µM | MDA-N 22.4 µM | SN12C 14.9 µM | HCC 2998 39.6 µM

Clc1ccc(Cc2nc3cc(Cl)c(Cl)cc3n2CC2CCCN3CCCCC23)cc1 (stereo not drawn)
inactive: NCI-H522 12.2 µM | SK-MEL-5 11.3 µM | M14 2.65 µM | MDA-MB-435 13 µM | A549 13.2 µM | SF-539 10.4 µM | SK-MEL-2 16 µM | MDA-MB-231 4.13 µM | SR 3.35 µM | MCF7 10.7 µM | SW-620 13.6 µM | Hs-578T 9.79 µM | BT-549 13.1 µM | MDA-N 11.7 µM | SN12C 12.3 µM | HCC 2998 3.68 µM
